Columns and labels:
[1] = Literature reported data; cited from earlier work
[2] = Dynamic vapor sorption (DVS); format: physicochemical; settings: 25° C./90% RH

Row | SMILES | BBB+ [1] | maximum water uptake (DVS) [2]
1 | N#Cc1ccnc(N2C(=O)CC[C@H]2C(=O)N(c2cncc(F)c2)[C@H](C(=O)NC2CC(F)(F)C2)c2ccccc2Cl)c1 [AG-120] | No | –
2 | C[C@@H](Nc1nc(N[C@H](C)C(F)(F)F)nc(-c2cccc(Cl)n2)n1)C(F)(F)F [AG-881] | Yes | –
3 | C[C@H](Nc1ccc(C#N)n(C)c1=O)c1cc2cc(Cl)ccc2[nH]c1=O [Compound 1 Type A, (S)-5-((1-(6-chloro-2-oxo-1,2-dihydroquinolin-3-yl)ethyl)amino)-1-methyl-6-oxo-1,6-dihydropyridine-2-carbonitrile] | – | 0.25 % w/w
4 | Cc1cc([C@H](C)Nc2nccc(N3C(=O)OC[C@@H]3C(C)C)n2)ncc1-c1ccnc(C(F)(F)F)c1 [IDH305] | Yes | –
5 | Cc1cc(-c2cnc([C@H](C)Nc3nccc(N4C(=O)OC[C@@H]4C(C)C)n3)nc2)ccc1F [IDH889] | Yes | –

From patent publication US11376246B2, “Inhibiting mutant IDH-1” (FORMA Therapeutics, Inc., priority 2018, dated 2022)
